Holding throughout (experiment): NCI anticancer screen, dose series, 48 h
In test [1] the test system is SN12C.
For test [2], the system named is UO-31.
Test [3] has as its system 786-0.
In test [4] the test system is SK-MEL-5.
Test [5] concerns OVCAR-3.
In test [6] the test system is TK-10.
For test [7], the system named is Malme-3M.
Test [8] deals with PC-3.
Test [9] relates to LOX IMVI.
In test [10] the test system is SF-268.
For test [11], the system named is M14.
Test [12] concerns HOP-92.
Test [13] concerns SF-295.
Test [14] deals with Hs-578T.
Test [15] has as its system SR.
Test [16] has as its system SNB-19.
The test system of test [17] is NCI-H522.
The subject of test [18] is T47D.
For test [19], the system named is OVCAR-4.

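A five-concentration, 48-hour dose response in 96-well plates underlies each endpoint, interpolated linearly between surrounding concentrations. GI50 marks 50% less growth.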 Activity calls are given as the source filed them. No stated cut-off is given here; in the data, active = GI50 up to about 1.1 µM and inactive = higher.

With `COc1cc(/C=C/c2ccc(/C=C/c3cc(OC)c(OC)c(OC)c3)cc2)cc(OC)c1OC`, the GI50 in test [1] was 56.8 µM (inactive); in [2], 36.1 µM (inactive); in test [3] it was 7.94 µM (inactive); in [4], 34.4 µM (inactive); in [5], 25.2 µM (inactive); in [6] it was 17.6 µM (inactive). For the same compound, the GI50 in test [7] is 20.3 µM (inactive); in [8], 27.5 µM (inactive); in test [9], 34.4 µM (inactive); in [10] it was 11.7 µM (inactive); in test [11], 39.3 µM (inactive); in [12] it was 15.4 µM (inactive). The GI50 in test [13] was 10.9 µM (inactive); in [14], 18.9 µM (inactive); in test [15] it was > 100 µM (inactive); in test [16] it was 13.6 µM (inactive); in test [17], 8.11 µM (inactive); in test [18] it was 3.39 µM (inactive). The GI50 in [19] is 3.98 µM (inactive).

Consider `CC(C)=NOC(=O)Nc1cccc2c1OCO2`, for which the GI50 in test [1], in test [2], in test [3], in test [4], in test [5] and in test [6] was > 100 µM (inactive) each time. Also, the GI50 in test [7], in test [8], in test [9], in test [10], in [11] and in [12] was > 100 µM (inactive) throughout. For the same compound, the GI50 in test [13] was > 100 µM (inactive); in [14], 28.8 µM (inactive); in [16], > 100 µM (inactive); in test [17] it was > 100 µM (inactive); in [18], > 100 µM (inactive); in test [19], > 100 µM (inactive).

Regarding `N#CCN(Cc1ccccc1)[C@H]1CCC[C@]1(O)/C=C/c1ccc2c(c1)OCO2`, the GI50 in test [2] is 27.2 µM (inactive); in test [3], 17.4 µM (inactive); in test [4], 16.5 µM (inactive); in test [5], 5.41 µM (inactive); in [6], 42.9 µM (inactive); in [7], 17.6 µM (inactive). Further, the GI50 in test [8] was 16.8 µM (inactive); in test [9], 15.7 µM (inactive); in test [10], 34.4 µM (inactive); in test [11], 16.5 µM (inactive); in [12], 18.2 µM (inactive); in [13], 16.4 µM (inactive). Further, the GI50 in test [14] was 17.2 µM (inactive); in test [15], 17.5 µM (inactive); in test [16] it was 25.2 µM (inactive); in [17], 17 µM (inactive); in test [18], 19.3 µM (inactive); in test [19] it was 29 µM (inactive).

Consider `CN(C)C(=S)/N=c1\ssc(=S)n1Cc1cccnc1`, for which the GI50 in test [1] was 5.18 µM (inactive); in test [2], 13.1 µM (inactive); in [3], 4.07 µM (inactive); in test [4], 1.67 µM (inactive); in test [5], 1.65 µM (inactive); in [6] it was 14.2 µM (inactive). The GI50 in test [7] was 2.16 µM (inactive); in [8], 1.67 µM (inactive); in [9], 4.27 µM (inactive); in test [10] it was 15.2 µM (inactive); in test [11], 2.37 µM (inactive); in test [12] it was 3.81 µM (inactive). In addition, the GI50 is 1.81 µM (inactive) in test [13]; 1.86 µM (inactive) in test [14]; 0.638 µM (active) in test [15]; 5.15 µM (inactive) in test [16]; 0.531 µM (active) in [17]; > 100 µM (inactive) in test [18]. Also, the GI50 in [19] is 19.3 µM (inactive).
